Patent US10548911B2, “Small molecule anti-scarring agents” (UNIVERSITY OF ROCHESTER, priority 2014, dated 2020)
Entries after “also recorded” stand apart in the source; their conditions may differ.

Assays:
[1] = system: TGFβ-induced luciferase activity; assay: Spectrum collection small molecule screen with TGFβ-dependent SBE-luciferase HEK293FT reporter cell line; type: cell-based, human; settings: HEK293FT-luc reporter line
Excerpt: The minimal thymidine kinase promoter was amplified by PCR with the following forward and reverse primers, of which the forward primer contained four tandem Smad binding elements (SBE):
Restriction sites in the primers are underlined. The resultant PCR product was TOPO cloned (Invitrogen) and the correct insert was verified by DNA sequencing. The construct was digested with SacI-HindIII and the SBEx4-TK insert was purified and ligated with the pGL4.15 vector (Promega). Clones were verified by restriction digest and then tested for TGFβ responsiveness in transient transfections of 293FT cells. […] Clones were selected by treatment with 200 μg/ml hygromycin. 20 clones were selected and screened for TGFβ-induced luciferase activity. One clone that was robustly responsive was subsequently used in the small molecule screen.
Excessive scarring results from the formation of too many myofibroblasts and the production of too much extracellular matrix material such as collagen. Since TGFβ drives the formation of myofibroblasts in part through activating the Smad pathway, a reporter construct was designed to serve as a measure of TGFβ-induced Smad activity (FIG. 1A). Four tandem Smad binding elements (SBE) were inserted upstream of the minimal thymidine kinase promoter. The SBEx4-TK promoter was inserted into the pGL4.15 vector which contains a destabilized firefly luciferase gene and the hygromycin resistance gene. The pSBEx4-TK-luc-Hygro plasmid was then introduced into HEK293FT cells by lipofection. Stable clones were generated and screened for TGFβ induced luciferase activity. One clone was selected that consistently gave a 15 to 20-fold induction of luciferase activity when cells were treated with TGFβ for 24 hours (FIG. 1B).
To find compounds that inhibit TGFβ activity and thus may be novel anti-scarring compounds, the Spectrum collection of 2,300 small molecules was screened with the cell line. […] Salinomycin, an antibiotic produced from Streptomyces albus is used as coccidiostat agent in animal feed (Knirschova et al., “Multiple regulatory genes in the salinomycin biosynthetic gene cluster of Streptomyces albus CCM 4719,” Folia Microbiologica 52:359-365 (2007), which is hereby incorporated by reference in its entirety). […] Thus, further investigation was made to assess the use of salinomycin as an anti-scarring agent.

[2] = system: TGFβ-induced SBE-luciferase activity; assay: Secondary dual luciferase screen (SBE-luciferase normalized to constitutive Renilla luciferase); type: cell-based, human; settings: for inhibition of luciferase expression, dose responsiveness: secondary dual luciferase screen, several doses (low micromolar)
Protocol: FIG. 1A is a diagram of Smad-dependent reporter construct. Four tandem Smad binding elements (SBE) were inserted upstream of the minimal Thymidine Kinase (TK) promoter. Downstream of the promoter is a destabilized version of the firefly luciferase gene (luc2P) present in the pLuc2P-Hygro plasmid which also harbors the hygromycin resistance gene. The plasmid was introduced into HEK293FT cell line and individual colonies were selected with hygromycin (200 ug/ml) to develop a Smad/TGFβ dependent-luciferase reporter cell line. FIG. 1B is a graph illustrating the response of the reporter cell line to 1 ng/ml treatment of TGFβ for 20 hours, which results in an approximately 20-fold increase of luciferase activity.
They are: Benzbromarone (“BZB”), Bithionate sodium (“BTS”), Piplartine (piperlongumine) (“PPT”), Amsacrine (“ASC”), and Alexidine (“AXD”). A secondary luciferase screening assay was performed to determine specificity and dose responsiveness of these compounds in comparison to salinomycin (“SNC”). The secondary screen utilizes dual luciferase technology that includes the above mentioned SBE-luciferase in addition to a Renilla luciferase that is under control of the constitutive SV40 promoter. Therefore the SBE-luciferase activity can be normalized to the Renilla luciferase activity to control for toxicity and non-specific effects. The secondary screen can thus be used to remove small molecules that display overt toxicity and/or non-specific effects on the primary assay.

human fibroblasts = assay: BrdU incorporation assay (cell proliferation); type: cell-based; settings: for basal fibroblast proliferation (BrdU incorporation): 250 nM, without TGFβ
Protocol: Human fibroblasts were seeded on a 96-well plate at a density of 1×10^5 cells/well. Cells were treated in triplicate. Cell proliferation was determined using the bromodeoxyuridine (BrdU) assay following manufacturer's instructions. Briefly, cells were treated with a BrdU label at a 1:2000 dilution for 24 h after the initial 72 h treatment with TGFβ+/−drugs. BrdU incorporation was measured using the BrdU Cell Proliferation Assay kit (Calbiochem, San Diego, Calif.) at 450-540 nm using a Varioskan microplate reader.
While salinomycin and other polyether ionophores blocked myofibroblast formation, it was next assessed whether these effects were a result of toxicity and/or due to a block of cell proliferation. Though the treatment doses are relatively low (efficacy in 100-250 nM range), a loss of cell viability could still be a possibility. To test this, human fibroblasts were treated with vehicle (DMSO), 50-250 nM salinomycin alone, TGFβ or TGFβ plus 250 nM salinomycin. As a positive control, fibroblasts were treated with the cytotoxic drug, puromycin. Treated cells were cultured in the presence of alamar blue reagent, which measures mitochondrial oxidation-reduction (REDOX) potential and serves as a quantitative viability sensor. After 72 hours of culture, alamar blue fluorescence was measured to assay cell viability (FIG. 4A). […] It was also tested whether salinomycin affects basal fibroblast proliferation. To address this, cells were treated with vehicle or 250 nm of either salinomycin or narasin for 24 hours in the presence of bromodeoxyuridine (BrdU) to measure cell proliferation ([…], first three bars). […] BrdU was also added to cells treated with TGFβ in the presence or absence of 250 nM salinomycin or narasin (FIG. 4B, last three bars). As expected, TGFβ induced human fibroblast proliferation. Remarkably, both salinomycin and narasin were able to beneficially block TGFβ induced proliferation by 4 to 5 fold, without affecting basal proliferation levels.

phospho-Smad2 = assay: Western blot of phospho-Smad2/3 in TGFβ-treated human orbital fibroblasts; type: cell-based
Protocol: To further characterize the molecular mechanisms whereby salinomycin (and other polyether antibiotics) blocks TGFβ induced myofibroblast formation, activation kinetics were analyzed for some of the key mediators of TGFβ signaling (Weiss et al., “The TGFbeta superfamily signaling pathway,” Wiley Interdiscip. Rev. Dev. Biol. 2:47-63 (2013), which is hereby incorporated by reference in its entirety). Since salinomycin was first identified as a putative anti-scarring molecule by its ability to block TGFβ-induced Smad activity, the levels of phospho-Smad2 were analyzed by Western blot in cells treated with TGFβ or TGFβ plus salinomycin. […] The experiment was repeated, with samples being incubated for extended periods of time including 5, 24, 48 and 72 h hours (FIG. 5A, top panel).

## CC[C@@H](C(=O)[C@@H](C)[C@@H](O)[C@H](C)[C@@H]1O[C@@H]([C@@H](CC)C(=O)O)CC[C@@H]1C)[C@H]1O[C@]2(C=C[C@@H](O)[C@]3(CC[C@@](C)([C@H]4CC[C@](O)(CC)[C@H](C)O4)O3)O2)[C@H](C)C[C@@H]1C [salinomycin]
[1]
  inhibition of TGFβ-induced luciferase activity, initial screen: blocked TGFβ-induced luciferase activity; also recorded: particularly potent at inhibiting luciferase activity
[2]; 1 uM
  TGFβ-induced SBE-luciferase activity level: below baseline levels
[2]
  inhibition of luciferase expression, dose responsiveness: dose dependent decrease; also recorded: dose responsive decrease
[2]; listed as SNC
  inhibition of luciferase expression, dose responsiveness: substantially inhibited luciferase expression
Human fibroblasts; 250 nM plus TGFβ
  TGFβ induced proliferation (BrdU incorporation): significantly blocked TGFβ induced proliferation
Human fibroblasts
  basal fibroblast proliferation (BrdU incorporation): Neither salinomycin nor narasin blocked basal fibroblast proliferation
Human fibroblasts; listed as Salinomycin
  basal fibroblast proliferation (BrdU incorporation): did not affect basal fibroblast proliferation
phospho-Smad2; 250 nM, 5 hours
  reduction of TGFβ induced phospho-Smad2/3 levels: 2 fold
  reduction of phospho-Smad2 levels compared to TGFβ alone: 80%
phospho-Smad2; 250 nM, 24 hours
  reduction of TGFβ induced phospho-Smad2/3 levels: 8-10 fold
phospho-Smad2; 250 nM, 24 hours, listed as Salinomycin
  reduction of TGFβ induced phospho-Smad2/3 levels: 5 fold
phospho-Smad2; early time points (30 sec-1 hour), TGFβ
  phospho-Smad2 levels: did not affect phospho-Smad2 levels
